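Values below derive from 48-hour exposures of cells grown in 96-well plates, with endpoints linearly interpolated between the two concentrations bracketing the appropriate inhibition level. TGI denotes the concentration required for complete inhibition of growth.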
Tests used:
Assay in all cases: NCI tumour cell line growth inhibition, 48 h
786-0 renal = tested on: 786-0 renal
A498 renal = tested on: A498 renal
A549 NSCLC = tested on: A549 NSCLC
ACHN renal = tested on: ACHN renal
BT-549 breast = tested on: BT-549 breast
CAKI-1 renal = tested on: CAKI-1 renal
COLO 205 colon = tested on: COLO 205 colon
DU-145 prostate = tested on: DU-145 prostate
EKVX NSCLC = tested on: EKVX NSCLC
HCC-2998 colon = tested on: HCC-2998 colon
HCT-116 colon = tested on: HCT-116 colon
HCT-15 colon = tested on: HCT-15 colon
HL-60(TB) leukemia = tested on: HL-60(TB) leukemia
HOP-62 NSCLC = tested on: HOP-62 NSCLC
HOP-92 NSCLC = tested on: HOP-92 NSCLC
HS 578T breast = tested on: HS 578T breast
HT29 colon = tested on: HT29 colon
IGROV1 ovarian = tested on: IGROV1 ovarian
K-562 leukemia = tested on: K-562 leukemia
KM12 colon = tested on: KM12 colon
M14 melanoma = tested on: M14 melanoma
MALME-3M melanoma = tested on: MALME-3M melanoma
MCF7 breast = tested on: MCF7 breast
MDA-MB-231 breast = tested on: MDA-MB-231 breast
MDA-MB-435 = tested on: MDA-MB-435
MDA-N = tested on: MDA-N
MOLT-4 leukemia = tested on: MOLT-4 leukemia
NCI-H226 lung = tested on: NCI-H226 lung
NCI-H23 lung = tested on: NCI-H23 lung
NCI-H460 lung = tested on: NCI-H460 lung
NCI-H522 lung = tested on: NCI-H522 lung
NCI/ADR-RES ovarian = tested on: NCI/ADR-RES ovarian
OVCAR-3 ovarian = tested on: OVCAR-3 ovarian
OVCAR-4 ovarian = tested on: OVCAR-4 ovarian
OVCAR-5 ovarian = tested on: OVCAR-5 ovarian
OVCAR-8 ovarian = tested on: OVCAR-8 ovarian
PC-3 prostate = tested on: PC-3 prostate
RPMI-8226 leukemia = tested on: RPMI-8226 leukemia
RXF 393 renal = tested on: RXF 393 renal
SF-268 CNS = tested on: SF-268 CNS
SF-295 CNS = tested on: SF-295 CNS
SF-539 CNS = tested on: SF-539 CNS
SK-MEL-2 melanoma = tested on: SK-MEL-2 melanoma
SK-MEL-28 melanoma = tested on: SK-MEL-28 melanoma
SK-MEL-5 melanoma = tested on: SK-MEL-5 melanoma
SK-OV-3 ovarian = tested on: SK-OV-3 ovarian
SN12C renal = tested on: SN12C renal
SNB-19 CNS = tested on: SNB-19 CNS
SNB-75 CNS = tested on: SNB-75 CNS
SR leukemia = tested on: SR leukemia
SW-620 colon = tested on: SW-620 colon
T-47D breast = tested on: T-47D breast
TK-10 renal = tested on: TK-10 renal
U251 CNS = tested on: U251 CNS
UACC-257 melanoma = tested on: UACC-257 melanoma
UACC-62 melanoma = tested on: UACC-62 melanoma
UO-31 renal = tested on: UO-31 renal
LOX IMVI melanoma = tested on: LOX IMVI melanoma

Structure (SMILES): NS(=O)(=O)c1ccc(NCc2cnc3ccccc3c2)cc1
- TGI (786-0 renal): > 100 µM
- TGI (A498 renal): > 100 µM
- TGI (A549 NSCLC): > 100 µM
- TGI (ACHN renal): > 100 µM
- TGI (BT-549 breast): > 100 µM
- TGI (CAKI-1 renal): > 100 µM
- TGI (COLO 205 colon): > 100 µM
- TGI (DU-145 prostate): > 100 µM
- TGI (EKVX NSCLC): > 100 µM
- TGI (HCC-2998 colon): > 100 µM
- TGI (HCT-116 colon): > 100 µM
- TGI (HCT-15 colon): > 100 µM
- TGI (HL-60(TB) leukemia): 3.96 µM
- TGI (HOP-62 NSCLC): > 100 µM
- TGI (HOP-92 NSCLC): > 100 µM
- TGI (HS 578T breast): > 100 µM
- TGI (HT29 colon): > 100 µM
- TGI (IGROV1 ovarian): > 100 µM
- TGI (K-562 leukemia): > 100 µM
- TGI (KM12 colon): > 100 µM
- TGI (M14 melanoma): > 100 µM
- TGI (MALME-3M melanoma): > 100 µM
- TGI (MCF7 breast): > 100 µM
- TGI (MDA-MB-231 breast): > 100 µM
- TGI (MDA-MB-435): > 100 µM
- TGI (MDA-N): > 100 µM
- TGI (MOLT-4 leukemia): > 100 µM
- TGI (NCI-H226 lung): > 100 µM
- TGI (NCI-H23 lung): > 100 µM
- TGI (NCI-H460 lung): > 100 µM
- TGI (NCI-H522 lung): > 100 µM
- TGI (NCI/ADR-RES ovarian): > 100 µM
- TGI (OVCAR-3 ovarian): > 100 µM
- TGI (OVCAR-4 ovarian): > 100 µM
- TGI (OVCAR-5 ovarian): > 100 µM
- TGI (OVCAR-8 ovarian): > 100 µM
- TGI (PC-3 prostate): > 100 µM
- TGI (RPMI-8226 leukemia): > 100 µM
- TGI (RXF 393 renal): > 100 µM
- TGI (SF-268 CNS): > 100 µM
- TGI (SF-295 CNS): > 100 µM
- TGI (SF-539 CNS): > 100 µM
- TGI (SK-MEL-2 melanoma): > 100 µM
- TGI (SK-MEL-28 melanoma): > 100 µM
- TGI (SK-MEL-5 melanoma): > 100 µM
- TGI (SK-OV-3 ovarian): > 100 µM
- TGI (SN12C renal): > 100 µM
- TGI (SNB-19 CNS): > 100 µM
- TGI (SNB-75 CNS): > 100 µM
- TGI (SR leukemia): > 100 µM
- TGI (SW-620 colon): > 100 µM
- TGI (T-47D breast): > 100 µM
- TGI (TK-10 renal): > 100 µM
- TGI (U251 CNS): > 100 µM
- TGI (UACC-257 melanoma): > 100 µM
- TGI (UACC-62 melanoma): > 100 µM
- TGI (UO-31 renal): > 100 µM

Structure (SMILES): O=C(O)C1CCCN1Cc1ccc2c(c1)OCO2 (stereo not drawn)
- TGI (786-0 renal): > 100 µM
- TGI (A498 renal): > 100 µM
- TGI (A549 NSCLC): > 100 µM
- TGI (ACHN renal): > 100 µM
- TGI (BT-549 breast): > 100 µM
- TGI (CAKI-1 renal): > 100 µM
- TGI (COLO 205 colon): > 100 µM
- TGI (DU-145 prostate): > 100 µM
- TGI (EKVX NSCLC): > 100 µM
- TGI (HCT-116 colon): > 100 µM
- TGI (HCT-15 colon): > 100 µM
- TGI (HOP-62 NSCLC): > 100 µM
- TGI (HOP-92 NSCLC): > 100 µM
- TGI (HS 578T breast): > 100 µM
- TGI (HT29 colon): > 100 µM
- TGI (IGROV1 ovarian): > 100 µM
- TGI (K-562 leukemia): > 100 µM
- TGI (KM12 colon): > 100 µM
- TGI (LOX IMVI melanoma): > 100 µM
- TGI (M14 melanoma): > 100 µM
- TGI (MALME-3M melanoma): > 100 µM
- TGI (MCF7 breast): > 100 µM
- TGI (MDA-MB-231 breast): > 100 µM
- TGI (MDA-MB-435): > 100 µM
- TGI (MDA-N): > 100 µM
- TGI (MOLT-4 leukemia): > 100 µM
- TGI (NCI-H226 lung): > 100 µM
- TGI (NCI-H23 lung): > 100 µM
- TGI (NCI-H460 lung): > 100 µM
- TGI (NCI-H522 lung): > 100 µM
- TGI (NCI/ADR-RES ovarian): > 100 µM
- TGI (OVCAR-3 ovarian): > 100 µM
- TGI (OVCAR-4 ovarian): > 100 µM
- TGI (OVCAR-5 ovarian): > 100 µM
- TGI (OVCAR-8 ovarian): > 100 µM
- TGI (PC-3 prostate): > 100 µM
- TGI (RPMI-8226 leukemia): > 100 µM
- TGI (RXF 393 renal): > 100 µM
- TGI (SF-268 CNS): > 100 µM
- TGI (SF-295 CNS): > 100 µM
- TGI (SF-539 CNS): > 100 µM
- TGI (SK-MEL-2 melanoma): > 100 µM
- TGI (SK-MEL-28 melanoma): > 100 µM
- TGI (SK-MEL-5 melanoma): > 100 µM
- TGI (SK-OV-3 ovarian): > 100 µM
- TGI (SN12C renal): > 100 µM
- TGI (SNB-19 CNS): > 100 µM
- TGI (SNB-75 CNS): > 100 µM
- TGI (SR leukemia): > 100 µM
- TGI (SW-620 colon): > 100 µM
- TGI (T-47D breast): > 100 µM
- TGI (TK-10 renal): > 100 µM
- TGI (U251 CNS): > 100 µM
- TGI (UACC-257 melanoma): > 100 µM
- TGI (UACC-62 melanoma): > 100 µM
- TGI (UO-31 renal): > 100 µM

— PubChem BioAssay (NCI)
